Laboratory results as given in patent publication US20260015350A1, “AZAQUINAZOLINE PAN-KRAS INHIBITORS” (Mirati Therapeutics, Inc., priority 2022, published 2026).

Columns and labels:
KRas^WT = biological target: T1, KRas^WT (Homo sapiens, UniProt P01116); assay: KRas binding assay (TR-FRET tracer displacement), KRas WT; conditions: for IC50: TR-FRET tracer displacement, KRas WT
T1 construct: Biotinylated KRas (corresponding to amino acids 1-169, produced at Accelegan Inc.); biotin (biotinylated); purchased Accelegan Inc

KRas^G12A = biological target: T2, KRas^G12A (Homo sapiens, UniProt P01116, G12A); assay: KRas binding assay (TR-FRET tracer displacement), KRas G12A; conditions: for IC50: TR-FRET tracer displacement, KRas G12A
T2 construct: Biotinylated KRas (corresponding to amino acids 1-169, produced at Accelegan Inc.); biotin (biotinylated); purchased Accelegan Inc

KRas^G12C = biological target: T3, KRas^G12C (Homo sapiens, UniProt P01116, G12C); assay: KRas binding assay (TR-FRET tracer displacement), KRas G12C; conditions: for IC50: TR-FRET tracer displacement, KRas G12C
T3 construct: Biotinylated KRas (corresponding to amino acids 1-169, produced at Accelegan Inc.); biotin (biotinylated); purchased Accelegan Inc

KRas^G12D = biological target: T4, KRas^G12D (Homo sapiens, UniProt P01116, G12D); assay: KRas binding assay (TR-FRET tracer displacement), KRas G12D
T4 construct: Biotinylated KRas (corresponding to amino acids 1-169, produced at Accelegan Inc.); biotin (biotinylated); purchased Accelegan Inc

KRas^G12R = biological target: T5, KRas^G12R (Homo sapiens, UniProt P01116, G12R); assay: KRas binding assay (TR-FRET tracer displacement), KRas G12R
T5 construct: Biotinylated KRas (corresponding to amino acids 1-169, produced at Accelegan Inc.); biotin (biotinylated); purchased Accelegan Inc

KRas^G12S = biological target: T6, KRas^G12S (Homo sapiens, UniProt P01116, G12S); assay: KRas binding assay (TR-FRET tracer displacement), KRas G12S; conditions: for IC50: TR-FRET tracer displacement, KRas G12S
T6 construct: Biotinylated KRas (corresponding to amino acids 1-169, produced at Accelegan Inc.); biotin (biotinylated); purchased Accelegan Inc

KRas^G12V = biological target: T7, KRas^G12V (Homo sapiens, UniProt P01116, G12V); assay: KRas binding assay (TR-FRET tracer displacement), KRas G12V
T7 construct: Biotinylated KRas (corresponding to amino acids 1-169, produced at Accelegan Inc.); biotin (biotinylated); purchased Accelegan Inc

KRas^G13D = biological target: T8, KRas^G13D (Homo sapiens, UniProt P01116, G13D); assay: KRas binding assay (TR-FRET tracer displacement), KRas G13D; conditions: for IC50: TR-FRET tracer displacement, KRas G13D
T8 construct: Biotinylated KRas (corresponding to amino acids 1-169, produced at Accelegan Inc.); biotin (biotinylated); purchased Accelegan Inc

KRas^Q61H = biological target: T9, KRas^Q61H (Homo sapiens, UniProt P01116, Q61H); assay: KRas binding assay (TR-FRET tracer displacement), KRas Q61H; conditions: for IC50: TR-FRET tracer displacement, KRas Q61H
T9 construct: Biotinylated KRas (corresponding to amino acids 1-169, produced at Accelegan Inc.); biotin (biotinylated); purchased Accelegan Inc

[1] = test system: KRas-mediated phosphorylation of ERK in MKN1 cells; assay: Inhibition of KRas-mediated phosphorylation of ERK (Cisbio HTRF pERK), MKN1 cells; assay type: cell-based; conditions: Homo sapiens, MKN-1
Summary of the method: (§1)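 Overnight culture at 37° C./5% CO2 in RPMI containing 10% FBS, seeded 6,000 cells per well, preceded the assay. A covered 4-hour incubation at room temperature followed, then HTRF signal for phosphorylated ERK was measured.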

[2] = test system: KRas-mediated phosphorylation of ERK in PSN1 cells; assay: Inhibition of KRas-mediated phosphorylation of ERK (Cisbio HTRF pERK), PSN1 cells; assay type: cell-based; conditions: Homo sapiens
Summary of the method: as §1

[3] = test system: KRas-mediated phosphorylation of ERK in AsPC-1 cells; assay: Inhibition of KRas-mediated phosphorylation of ERK (Cisbio HTRF pERK), AsPC-1 cells; assay type: cell-based; conditions: Homo sapiens, ASPC1, AsPC-1 cells; HTRF pERK
Summary of the method: (§2)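 H358, H727, H460 and AsPC-1 cells seeded at 6,000/well, treated 3 hrs with 10-dose 3-fold dilutions from 10 uM (0.8% DMSO); 0.2 uM trametinib as min control. Lysed 40 min at 4° C; lysate incubated 2 hrs at room temperature with d2/cryptate antibodies, HTRF read.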

[4] = test system: KRas-mediated phosphorylation of ERK in H727 cells; assay: Inhibition of KRas-mediated phosphorylation of ERK (Cisbio HTRF pERK), H727 cells; assay type: cell-based; conditions: Homo sapiens, NCI-H727, H727 cells; HTRF pERK
Summary of the method: as §2

[5] = test system: KRas-mediated phosphorylation of ERK in A549 cells; assay: Inhibition of KRas-mediated phosphorylation of ERK (Cisbio HTRF pERK), A549 cells; assay type: cell-based; conditions: Homo sapiens; for IC50: HTRF pERK
Summary of the method: (§3)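 Min control wells contained 0.2 uM Trametinib, while test compounds ran as 10 doses (3-fold, top 10 uM; 0.8% DMSO final) on cells for 3 hrs. After 40 mins lysis at 4° C, lysates were probed with HTRF antibodies for 2 hrs at room temperature.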

[6] = test system: KRas-mediated phosphorylation of ERK in H460 cells; assay: Inhibition of KRas-mediated phosphorylation of ERK (Cisbio HTRF pERK), H460 cells; assay type: cell-based; conditions: Homo sapiens, NCI-H460, HTRF pERK
Summary of the method: as §2

[7] = test system: KRas-mediated phosphorylation of ERK in HCT116 cells; assay: Inhibition of KRas-mediated phosphorylation of ERK (Cisbio HTRF pERK), HCT116 cells; assay type: cell-based; conditions: Homo sapiens, HCT-116, HTRF pERK
Summary of the method: as §3

[8] = test system: KRas-mediated phosphorylation of ERK in H358 cells; assay: Inhibition of KRas-mediated phosphorylation of ERK (Cisbio HTRF pERK), H358 cells; assay type: cell-based; conditions: Homo sapiens; for IC50: NCI-H358, HTRF pERK
Summary of the method: as §2

[9] = single point, 10 nM compound, TR-FRET

T5 sequence (P01116 1-169 isoform P01116-2 G12R): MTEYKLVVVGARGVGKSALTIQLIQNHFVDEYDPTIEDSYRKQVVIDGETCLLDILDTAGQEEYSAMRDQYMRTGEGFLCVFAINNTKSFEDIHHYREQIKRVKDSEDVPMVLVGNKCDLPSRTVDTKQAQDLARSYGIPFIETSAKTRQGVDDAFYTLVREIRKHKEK
T2 sequence (P01116 1-169 isoform P01116-2 G12A): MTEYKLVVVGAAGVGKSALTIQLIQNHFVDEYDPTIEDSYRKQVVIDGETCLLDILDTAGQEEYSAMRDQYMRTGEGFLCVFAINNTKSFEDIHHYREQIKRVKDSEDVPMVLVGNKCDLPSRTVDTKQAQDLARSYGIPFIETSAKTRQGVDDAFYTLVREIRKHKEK
T1 sequence (P01116 1-169 isoform P01116-2): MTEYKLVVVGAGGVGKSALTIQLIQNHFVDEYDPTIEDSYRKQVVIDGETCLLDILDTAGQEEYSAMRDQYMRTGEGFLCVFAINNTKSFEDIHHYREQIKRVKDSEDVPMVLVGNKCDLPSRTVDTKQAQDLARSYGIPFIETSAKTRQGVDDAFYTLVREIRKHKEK
T4 sequence (P01116 1-169 isoform P01116-2 G12D): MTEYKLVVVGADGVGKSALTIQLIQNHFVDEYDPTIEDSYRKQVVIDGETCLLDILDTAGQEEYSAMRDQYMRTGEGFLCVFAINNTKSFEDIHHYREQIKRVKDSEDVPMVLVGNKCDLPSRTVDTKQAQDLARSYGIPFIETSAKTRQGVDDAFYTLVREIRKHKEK
T9 sequence (P01116 1-169 isoform P01116-2 Q61H): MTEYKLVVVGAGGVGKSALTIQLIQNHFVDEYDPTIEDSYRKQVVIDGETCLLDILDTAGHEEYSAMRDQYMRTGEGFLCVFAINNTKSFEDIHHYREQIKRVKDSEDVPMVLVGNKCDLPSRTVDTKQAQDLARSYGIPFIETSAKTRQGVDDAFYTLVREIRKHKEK
T8 sequence (P01116 1-169 isoform P01116-2 G13D): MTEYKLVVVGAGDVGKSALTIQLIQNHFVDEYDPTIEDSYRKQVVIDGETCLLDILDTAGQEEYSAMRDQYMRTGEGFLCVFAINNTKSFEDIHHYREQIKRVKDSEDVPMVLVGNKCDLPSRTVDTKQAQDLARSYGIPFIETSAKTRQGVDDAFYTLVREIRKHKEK
T6 sequence (P01116 1-169 isoform P01116-2 G12S): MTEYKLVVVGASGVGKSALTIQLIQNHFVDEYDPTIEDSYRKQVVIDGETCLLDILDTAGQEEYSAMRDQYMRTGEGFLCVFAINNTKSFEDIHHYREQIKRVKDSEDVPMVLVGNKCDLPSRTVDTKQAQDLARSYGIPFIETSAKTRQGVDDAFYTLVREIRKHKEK
T7 sequence (P01116 1-169 isoform P01116-2 G12V): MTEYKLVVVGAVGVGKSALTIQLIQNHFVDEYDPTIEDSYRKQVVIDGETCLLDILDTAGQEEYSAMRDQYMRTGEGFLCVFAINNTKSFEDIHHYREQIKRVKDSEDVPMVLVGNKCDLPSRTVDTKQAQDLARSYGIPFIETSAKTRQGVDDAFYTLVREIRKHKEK
T3 sequence (P01116 1-169 isoform P01116-2 G12C): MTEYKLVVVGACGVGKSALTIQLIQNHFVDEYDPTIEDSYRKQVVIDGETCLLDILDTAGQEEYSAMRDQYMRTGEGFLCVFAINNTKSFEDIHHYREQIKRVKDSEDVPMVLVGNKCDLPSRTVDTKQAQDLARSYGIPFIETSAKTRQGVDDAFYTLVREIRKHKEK

Row | IC50 (KRas^G12D) [nM] | IC50 (KRas^G12R) [nM] | IC50 (KRas^G12V) [nM] | IC50 [1] [nM] | IC50 [2] [nM] | IC50 [3] [nM] | IC50 [4] [nM] | IC50 [5] [nM] | IC50 [6] [nM] | IC50 [7] [nM] | IC50 [8] [nM] | IC50 (KRas^WT) [nM] | IC50 (KRas^G12A) [nM] | IC50 (KRas^G12C) [nM] | IC50 (KRas^G12S) [nM] | IC50 (KRas^G13D) [nM] | IC50 (KRas^Q61H) [nM] | SMILES | further results
1 | 2 | 4 | 2 | 16 | 9010 | 18 | 61 | 18 | 29 | 75 | 18 | – | – | – | – | – | – | CCc1c(F)ccc2cc3[nH]ncc3c(-c3ncc4c(N5CCC[C@@](C)(O)C5)nc(OC[C@@]56CCCN5C[C@H](F)C6)nc4c3F)c12 [Example 776, (3R)-1-(7-(5-ethyl-6-fluoro-1H-benzo[f]indazol-4-yl)-8-fluoro-2-(((2R,7aS)-2-fluorohexahydro-1H-pyrrolizin-7a-yl)methoxy)pyrido[4,3-d]pyrimidin-4-yl)-3-methylpiperidin-3-ol] | inhibition at 0.01 µM (KRas^WT; [9]): 78%; inhibition at 0.01 µM (KRas^G12A; [9]): 80%; inhibition at 0.01 µM (KRas^G12C; [9]): 85%; inhibition at 0.01 µM (KRas^G12S; [9]): 83%; inhibition at 0.01 µM (KRas^G13D; [9]): 84%; inhibition at 0.01 µM (KRas^Q61H; [9]): 80%; inhibition at 0.1 µM ([5]; A549, 3 h, single point, 100 nM compound, 3 hrs): 60%; inhibition at 0.1 µM ([8]; NCI-H358, 3 h, single point, 100 nM compound, 3 hrs): 84%
2 | 3 | 5 | 4 | 57 | > 10000 | 871 | 809 | 2560 | 918 | 1510 | 228 | 5 | 5 | 3 | 4 | 3 | 5 | C#Cc1c(F)ccc2cc(O)cc(-c3ncc4c(N5CCC[C@@](C)(O)C5)nc(OC[C@@]56CCCN5[C@@H](CO)CC6)nc4c3F)c12 [Example 809, (R)-1-(7-(8-ethynyl-7-fluoro-3-hydroxynaphthalen-1-yl)-8-fluoro-2-(((3R,7aS)-3-(hydroxymethyl)tetrahydro-1H-pyrrolizin-7a(5H)-yl)methoxy)pyrido[4,3-d]pyrimidin-4-yl)-3-methylpiperidin-3-ol] | –
3 | 10 | 22 | 11 | 112 | > 10000 | 661 | 1560 | 1040 | 561 | 1130 | 234 | 17 | 14 | 9 | 13 | 10 | 18 | C[C@@]1(O)CCCN(c2nc(OCC34CCCN3CCC4)nc3c(F)c(-c4c(C5CC5)c(Cl)cc5[nH]ncc45)ncc23)C1 [Example 876, (3R)-1-(7-(6-chloro-5-cyclopropyl-1H-indazol-4-yl)-8-fluoro-2-((tetrahydro-1H-pyrrolizin-7a(5H)-yl)methoxy)pyrido[4,3-d]pyrimidin-4-yl)-3-methylpiperidin-3-ol] | –
